The test system of one data set is washed platelets. The experiment in a line: PAR4 agonist peptide induced platelet aggregation assay (washed platelets). Format: cell-based, human. The settings on record: agonist activity. The protocol: Human blood was collected in ACD (85 mM tri-sodium citrate, 78 mM citric acid, 110 mM D-glucose, pH 4.4) at a ratio of 1.4 ml per 10 ml blood. PRP was isolated by centrifugation at 170 g for 14 minutes and platelets were further pelleted by centrifugation at 1300 g for 6 minutes. Platelets were washed once with 10 ml ACD containing 1 mg/ml bovine serum albumin.
The ability of the compounds of the current invention to induce platelet aggregation was tested in a 96-well microplate aggregation assay format. Briefly, a washed platelet suspension with varying concentrations of agonist compounds was assayed. Aggregation was initiated by the addition of a titered test agonist peptide. The plate was then placed into a 37° C. Molecular Devices SPECTRAMAX® Plus Plate Reader (Sunnyvale, Calif.). […] The plate also included an untreated control sample which served as ODmax, while buffer containing no platelets was the ODmin. Platelet aggregation was determined by subtracting the ODmax from the ODmin for the 100% aggregation value. In experimental samples, the observed transmission was subtracted from the minimum value and then compared to the 100% aggregation value to determine the percentage aggregation. ED50 values were determined using Excel Fit software.

Data set [1] has as its target T1, PAR4 (Homo sapiens (Human), UniProt Q96RI0). The data set can be described thus: FLIPR assay in PAR4-expressing HEK293 cells, test for antagonist activity. Format: cell-based. The settings on record: H-Ala-Phe(4-F)-Pro-Gly-Trp-Leu-Val-Lys-Asn-Gly-NH2-induced calcium mobilization. The source says:
The FLIPR assay is an exemplary in vitro assay for measuring the activity of the PAR4 antagonists of the present invention. In this assay, intracellular calcium mobilization is induced in PAR4 expressing cells by a PAR4 agonist and calcium mobilization is monitored. See, e.g., Example A. The FLIPR assay is also an exemplary in vitro assay for measuring the agonist activity of PAR4 agonist peptides. See Example H.
HEK293 cells stably expressing PAR4 were generated by a standard method of transfection of human […] cDNA expression vector or by RAGE technology from Athersys Inc. (Cleveland, Ohio) and selected based on PAR4 protein expression of mRNA expression. […] These cells express endogenous PAR1 and can elicit calcium signal upon stimulation with PAR1 agonist peptide.
Counter screens for agonist activity and PAR1 antagonist activity were also performed. Briefly, HEK293 EBNA PAR4 clone 20664.1J cells were plated 24 hrs. prior to experiment in 384 well, Poly-D-Lysine coated, black, clear bottom plates (Greiner Bio-One, Monroe, N.C.). Cells were plated at 20,000 cells/well in 20 μl growth medium and incubated at 37° C. with 5% CO2 overnight. At time of assay, media was replaced with 40 μl 1× Hank's Buffered Saline Solution (HBSS) (with 10 mM HEPES) and 20 μl test compound also diluted in 1×HBSS buffer was added at various concentrations and 0.67% DMSO final concentration on the FDSS for agonist measurement. The cells were then incubated for 30 minutes at room temperature followed by addition of 20 μl of agonist peptide for antagonist measurement on the FDSS.
In general terms: Calcium assays in cells follow changes in intracellular calcium, usually with a dye or a luminescent sensor.

The target of data set [2] is T1, PAR4. The experiment in a line: Gamma thrombin induced platelet aggregation assay (PRP assay). The settings on record: platelet rich plasma. Type of data set: cell-based. As for the experimental part: The platelet rich plasma was isolated by centrifugation at 170 g for 14 minutes.
The ability of the compounds of the current invention to inhibit platelet aggregation induced by gamma-thrombin was tested in a 96-well microplate aggregation assay format. Briefly, PRP or washed platelet suspension (100 μl) was pre-incubated for 5 minutes at room temperature with varying concentrations of compounds. Aggregation was initiated by ˜10-50 nM gamma thrombin (Haematologic Technologies, Essex Junction, Vt.), which was titrated daily to achieve 80% platelet aggregation. Refludan at 1 U/mL (Berlex, Montville, N.J.) was added to the gamma thrombin sample to prevent PAR1 activation induced by residual alpha-thrombin contamination. The plate was then placed into a 37° C. Molecular Devices (Sunnyvale, Calif.) SPECTRAMAX® Plus Plate Reader. […] The plate also included an untreated control sample which served as ODmax, while buffer containing no platelets was the ODmin. Platelet aggregation was determined by subtracting the ODmax from the ODmin for the 100% aggregation value. In experimental samples, the observed transmission was subtracted from the minimum value and then compared to the 100% aggregation value to determine the percentage aggregation. IC50 values are determined using Excel Fit software.

For data set [3] the following is noted: TRACER phase III trial, ACS patients; cited from earlier work.
For data set [4], the target named is protease-activated receptor type 4 (PAR4) (Homo sapiens (Human), UniProt Q96RI0). To be noted: abstract of Lee et al., J. Med. Chem. 2001; cited from earlier work.
Sequence of protease-activated receptor type 4 (PAR4) (Q96RI0 18-385): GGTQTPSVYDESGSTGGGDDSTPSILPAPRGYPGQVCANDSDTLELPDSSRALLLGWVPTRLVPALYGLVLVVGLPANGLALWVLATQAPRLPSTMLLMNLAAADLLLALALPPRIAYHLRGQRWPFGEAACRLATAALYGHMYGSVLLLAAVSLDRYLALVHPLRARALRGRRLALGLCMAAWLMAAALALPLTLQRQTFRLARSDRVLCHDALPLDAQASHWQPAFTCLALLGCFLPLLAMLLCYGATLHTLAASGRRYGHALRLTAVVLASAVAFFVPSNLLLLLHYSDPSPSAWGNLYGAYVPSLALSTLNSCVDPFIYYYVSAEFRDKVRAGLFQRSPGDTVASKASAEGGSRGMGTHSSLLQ

By EC50 is commonly meant the concentration that produces a half-maximal response. A word on the IC50: it is the midpoint of a concentration-inhibition curve.

T1 sequence (Q96RI0 18-385): as above

For `COc1cc(OCc2csc(-c3ccc(OC(F)(F)F)cc3)n2)c2cc(-c3cn4nc(OC)sc4n3)oc2c1` [Example 29], in the data set with washed platelets, the “ED50 (μM) [Platelet Aggregation]” value was determined as 1.0 µM.

`COc1cc(OCc2csc(N3CCCCC3)n2)c2cc(-c3cn4nc(OC)sc4n3)oc2c1` [Example 21]: the “ED50 (μM) [Platelet Aggregation]” value in the data set on washed platelets is 2.4 µM.

For the compound `COc1cc(OCc2csc(C)n2)c2cc(-c3cn4nc(OC)sc4n3)oc2c1` [Example 1, 2-Methoxy-6-(6-methoxy-4-((2-methylthiazol-4-yl)methoxy)benzofuran-2-yl)imidazo[2,1-b][1,3,4]thiadiazole], the “ED50 (μM) [Platelet Aggregation]” value with washed platelets stood at 13 µM.

In the case of `COc1cc(OCc2csc(N3CCC(F)(F)CC3)n2)c2cc(-c3cn4nc(OC)sc4n3)oc2c1` [Example 31], the “ED50 (μM) [Platelet Aggregation]” value with washed platelets came to 0.63 µM.

Consider `COc1cc(OCc2csc(C(F)(F)F)n2)c2cc(-c3cn4nc(OC)sc4n3)oc2c1` [Example 2, 2-Methoxy-6-(6-methoxy-4-((2-(trifluoromethyl)thiazol-4-yl)methoxy)benzofuran-2-yl)imidazo[2,1-b][1,3,4]thiadiazole], for which the EC50 on PAR4 [1] was found to be 0.42 nM. This compound yielded an IC50 on PAR4 [2] of 49 nM.

As to `COc1cc(OCc2csc(-c3cc(C)on3)n2)c2cc(-c3cn4nc(OC)sc4n3)oc2c1` [Example 33], the “ED50 (μM) [Platelet Aggregation]” value with washed platelets worked out at 1.2 µM. In addition, at PAR4 [1], the EC50 came to 1.7 nM. On PAR4 [2], this compound returned an IC50 of 38 nM.

Take `COc1cc(OCc2cn(-c3ccccc3)nn2)c2cc(-c3cn4nc(OC)sc4n3)oc2c1` [Example 9, 2-Methoxy-6-(6-methoxy-4-((1-phenyl-1H-1,2,3-triazol-4-yl)methoxy)benzofuran-2-yl)imidazo[2,1-b][1,3,4]thiadiazole]: the EC50 on PAR4 [1] stood at 5.3 nM. On PAR4 [2], this compound displayed an IC50 of more than 3000 nM.

As for `COc1cc(OCc2csc(-c3cccc(F)c3)n2)c2cc(-c3cn4nc(OC)sc4n3)oc2c1` [Example 25], the “ED50 (μM) [Platelet Aggregation]” value with washed platelets was 52 µM.

Consider `COc1cc(OCc2csc(-c3ccc(F)cc3)n2)c2cc(-c3cn4nc(OC)sc4n3)oc2c1` [Example 15], for which the “ED50 (μM) [Platelet Aggregation]” value in the data set with washed platelets was 0.63 µM.

Regarding `CCc1nc(COc2cc(OC)cc3oc(-c4cn5nc(OC)sc5n4)cc23)cs1` [Example 23], the “ED50 (μM) [Platelet Aggregation]” value in the data set on washed platelets was 0.79 µM.

Consider `CCOC(=O)N[C@@H]1CC[C@@H]2[C@@H](C1)C[C@H]1C(=O)O[C@H](C)[C@H]1[C@H]2/C=C/c1ccc(-c2cccc(F)c2)cn1` [vorapaxar], for which, in data set [3], the cardiovascular events entry is recorded as “did not significantly reduce cardiovascular events” and the “risk of major bleeding” value is given as “significantly increased the risk of major bleeding”.

Take `COc1ccc(-c2nc(COc3cc(OC)cc4oc(-c5cn6nc(OC)sc6n5)cc34)cs2)cc1` [Example 18]: the “ED50 (μM) [Platelet Aggregation]” value in the data set on washed platelets was found to be 5.5 µM. For the same compound, the EC50 on PAR4 [1] came to 2.5 nM. In addition, the IC50 on PAR4 [2] amounted to 3.6 nM.

Take `COc1cc(OCc2csc(-c3ccccc3Cl)n2)c2cc(-c3cn4nc(OC)sc4n3)oc2c1` [Example 16]: the “ED50 (μM) [Platelet Aggregation]” value with washed platelets amounted to 37 µM.

Consider `COc1cc(OCc2csc(C3CCCCC3)n2)c2cc(-c3cn4nc(OC)sc4n3)oc2c1` [Example 20], for which the “ED50 (μM) [Platelet Aggregation]” value with washed platelets came out at 4.1 µM.

For `COCCOCc1nc(COc2cc(OC)cc3oc(-c4cn5nc(OC)sc5n4)cc23)cs1` [Example 6, 2-Methoxy-6-(6-methoxy-4-((2-((2-methoxyethoxy)methyl)thiazol-4-yl)methoxy)benzofuran-2-yl)imidazo[2,1-b][1,3,4]thiadiazole], the “ED50 (μM) [Platelet Aggregation]” value in the data set on washed platelets was 1.1 µM.

In the case of `COc1cc(OCc2csc(-c3cccc(C(F)(F)F)c3)n2)c2cc(-c3cn4nc(OC)sc4n3)oc2c1` [Example 17], in the data set with washed platelets, the “ED50 (μM) [Platelet Aggregation]” value amounted to 106 µM.

As for `COc1cc(OCc2csc(-c3cccc(C)c3)n2)c2cc(-c3cn4nc(OC)sc4n3)oc2c1` [Example 12], the “ED50 (μM) [Platelet Aggregation]” value in the data set with washed platelets came out at 0.97 µM.

As to `COc1cc(OCc2cnnn2-c2ccccc2)c2cc(-c3cn4nc(OC)sc4n3)oc2c1` [Example 10, 2-Methoxy-6-(6-methoxy-4-((1-phenyl-1H-1,2,3-triazol-5-yl)methoxy)benzofuran-2-yl)imidazo[2,1-b][1,3,4]thiadiazole], on PAR4 [1], the EC50 stood at 3.5 nM. At PAR4 [2], this compound showed an IC50 of 2700 nM.

Turning to `COc1cc(OCc2csc(-c3cnccn3)n2)c2cc(-c3cn4nc(OC)sc4n3)oc2c1` [Example 32], the “ED50 (μM) [Platelet Aggregation]” value in the data set on washed platelets was 0.61 µM.

As for `COc1cc(OCc2nc(-c3ccccc3)sc2C)c2cc(-c3cn4nc(OC)sc4n3)oc2c1` [Example 13], the “ED50 (μM) [Platelet Aggregation]” value in the data set with washed platelets is 0.67 µM.

Regarding `COc1cc(OCc2csc(-c3ccc(Cl)cc3)n2)c2cc(-c3cn4nc(OC)sc4n3)oc2c1` [Example 27], in the data set on washed platelets, the “ED50 (μM) [Platelet Aggregation]” value is 1.7 µM.

`COc1cc(OCc2csc(-c3ccccc3F)n2)c2cc(-c3cn4nc(OC)sc4n3)oc2c1` [Example 26]: the “ED50 (μM) [Platelet Aggregation]” value in the data set on washed platelets worked out at 1.0 µM.

As for `COc1cc(OCc2cscn2)c2cc(-c3cn4nc(OC)sc4n3)oc2c1` [Example 34], the “ED50 (μM) [Platelet Aggregation]” value in the data set on washed platelets was 3.0 µM.

In the case of `CCOC(=O)c1ccc(-c2nn(Cc3ccccc3)c3ccccc23)cc1` [Compound 58], the “inhibition of PAR4-dependent platelet activation” value in data set [4] is “selective and potent inhibitor”.

Turning to `COc1cc(OCc2csc(-c3ccc(F)cc3F)n2)c2cc(-c3cn4nc(OC)sc4n3)oc2c1` [Example 24], the “ED50 (μM) [Platelet Aggregation]” value with washed platelets came out at 0.69 µM.

Turning to `COc1cc(OCc2csc(N3CCN(C)CC3)n2)c2cc(-c3cn4nc(OC)sc4n3)oc2c1` [Example 22], the “ED50 (μM) [Platelet Aggregation]” value in the data set with washed platelets was 1.2 µM.

For `COc1cc(OCc2csc(-c3ccccc3)n2)c2cc(-c3cn4nc(OC)sc4n3)oc2c1` [Example 3, 2-Methoxy-6-(6-methoxy-4-((2-phenylthiazol-4-yl)methoxy)benzofuran-2-yl)imidazo[2,1-b][1,3,4]thiadiazole], the “ED50 (μM) [Platelet Aggregation]” value in the data set on washed platelets is 0.86 µM.

In the case of `COc1cc(OCc2csc(-c3ccncc3)n2)c2cc(-c3cn4nc(OC)sc4n3)oc2c1` [Example 28], in the data set with washed platelets, the “ED50 (μM) [Platelet Aggregation]” value was determined as 0.76 µM.

On to `COc1cc(OCc2csc(C3CCOCC3)n2)c2cc(-c3cn4nc(OC)sc4n3)oc2c1` [Example 14], for which the “ED50 (μM) [Platelet Aggregation]” value in the data set with washed platelets was 12.3 µM.

As for `COc1cc(OCc2csc(-c3cccnc3)n2)c2cc(-c3cn4nc(OC)sc4n3)oc2c1` [Example 30], the “ED50 (μM) [Platelet Aggregation]” value in the data set on washed platelets came out at 1.7 µM.

For `COc1nn2cc(-c3cc4c(OCc5csc(-c6ccccc6)n5)cc(F)cc4o3)nc2s1` [Example 36, 6-(6-Fluoro-4-((2-phenylthiazol-4-yl)methoxy)benzofuran-2-yl)-2-methoxyimidazo[2,1-b][1,3,4]thiadiazole], the EC50 on PAR4 [1] was 1 nM. The compound further displayed a half-maximal inhibitory concentration (IC50) on PAR4 [2] of 48 nM.

With `COc1cc(OCc2csc(-c3ccccc3OC)n2)c2cc(-c3cn4nc(OC)sc4n3)oc2c1` [Example 19], the “ED50 (μM) [Platelet Aggregation]” value in the data set on washed platelets stood at 1.6 µM.
